Structures can show the parent of a compound that is named as a salt. Where two headings read alike, the source gives them in different places.
Assays:
[1] = tested on: chloral hydrate treated mice; assay: chloral hydrate antagonism test in the mouse (sleeping time); assay type: in vivo, mouse (male albino mice); settings: po, read-out: dose producing a 50 percent reduction of the sleeping time
[2] = tested on: pentobarbital treated cats; assay: pentobarbital antagonism test in the cat; assay type: in vivo; settings: comparison of 4-ethyl-4-methyl-2,6-piperidinedione and the two preferred compounds
Description: (§1) The compounds of the present invention effectively stimulate the central nervous system of mammals. Compounds having biological activity of this type are generally referred to as being analeptic agents.
The pentobarbital antagonism test for the compounds of the present invention in the cat is carried out in the following fashion. A cat of either sex wherein a chronically indwelling intravenous cannula has been previously surgically inserted, is placed in an observation cubicle measuring 2 ft. × 2ft. × 2ft. The cat is allowed to move about freely at the end of a leash. A dose of 12 milligrams per kilogram of body weight of pentobarbital sodium in aqueous solution is infused at the rate of approximately 2 milligrams per kilogram per minute via tubing contained in the leash. One-half hour after the start of this infusion the cat is in a state of light anesthesia characterized by unconsciousness, immobility, relaxed nictating membrane, and is not responsive to handling but has active pinneal, palpebral and paw-pinch withdrawal reflexes. At this time the 1-iminomethylindoline compound is infused in concentration of 10 milligrams per milliter at a rate of 0.2 milliters per minute until (a) consciousness is restored, (b) a total of 25 milligrams per kilogram of body weight of test compound is administered or (c) mounting toxicity interferes. Consciousness is recognized by the presence of alertness to surroundings as indicated by the ability of the cat's eyes to follow a movement of a nearby object and in its attempts to assume an upright position.
Representative compounds of the present invention wherein a dose of up to 25 milligrams per kilogram of body weight restored consciousness to pentobarbital treated cats are Examples 1-4, 7-10, 12, 15, 17-20, (Table III).

[3] = tested on: phenylquinone writhing syndrome in mice; assay: prevention of phenylquinone writhing (analgesic activity); assay type: in vivo; settings: Mus musculus, sc, 10 min, read-out: ED50 (prevention of phenylquinone writhing)
Description: The prevention of this syndrome is employed as a measure of analgesic activity -- Hendershot and Forsaith, J. Pharmacol. Exp. Therap. […] In this test, groups of 10 to 20 mice are injected subcutaneously with graduated doses of the test compound. At the time of a predetermined peak effect, the animals are administered a dose of 2.5 milligrams per kilogram of body weight of phenylquinone intraperitoneally. The latter injection induces writhing episodes in the mice. […] A log dose-response curve is prepared and the dose of the test compound required to decrease the number of writhing episodes of 50 percent is estimated by interpolation.

[4] = tested on: chloral hydrate treated mice; assay: chloral hydrate antagonism test in the mouse (sleeping time); assay type: in vivo, mouse (male albino mice); settings: oral 20 mg/kg, followed by 300 mg/kg i.p. chloral hydrate, compared to saline-treated control group, read-out: Percent Reduction in Sleeping Time at 20 mg/kg Body Weight
Description: as §1
According to the chloral hydrate antagonism test, groups of 20 fasted male albino mice are administered an oral dose of 20 milligrams per kilogram of the 1-iminomethylindoline test compound. This is followed immediately by an intraperitoneal dose of 300 milligrams per kilogram of chloral hydrate. The average reduction in sleeping time compared to a saline-treated control group is a measure of the central nervous system stimulant action of the test compound and is as follows for representative 1-iminomethylindolines of this invention.

motor activity in rats = assay: activity cage technique (motor stimulation in rats); assay type: in vivo, rat
Excerpt: The activity cage technique described by J. W. Kissel, Science, 139, 1224 (1963), was used to measure motor stimulation in rats. […] Since motor stimulation is generally associated with analeptic action, the instant compounds of this invention are unique in the respect that while they are analeptic agents they are not motor stimulants.

[5] = subcutaneous, phenylquinone 2.5 mg/kg i.p., episodes counted during 10 minutes
[6] = mouse, 300 mg/kg chloral hydrate, comparative test

Compound	ED50 [3, 5] [mg/kg]	inhibition in vivo at 20 mg/kg [4] [%]	also measured
CCC1(C)CC(=O)NC(=O)C1 [4-ethyl-4-methyl-2,6-piperidinedione, reference compound]			ED50 ([1]; Mus musculus): 14.4 mg/kg; comparison of pentobarbital antagonism: restoring consciousness to a pentobarbital treated cat [2]: substantially equiactive
CC(=O)Oc1ccccc1C(=O)O [Aspirin, reference compound]			ED50 [3]: 20 mg/kg
CN=CN1CCc2ccccc21.Cl [Example 1, 1-[(Methylimino)methyl]indoline hydrochloride]	21.8		
CC(C)N=CN1CCc2ccccc21 [Example 2, 1-[(Isopropylimino)methyl]indoline hydrochloride hemihydrate]		38	
CN=C(C)N1CCc2ccccc21.Cl [Example 3, 1-[1-(Methylimino)ethyl]indoline hydrochloride]	15.8	24	
CN=C(NC)N1CCc2ccccc21 [Example 4, 1-(N,N'-Dimethylamidino)indoline]		24	
c1ccc2c(c1)CCN2C1=NCCC1 [Example 7, 1-[2-(1-Pyrrolinyl)]indoline hydrochloride]	3.85	10	
CC1CCC(N2CCc3ccccc32)=N1 (centres unmarked) [Example 8, 1-[2-(5-Methyl-1-pyrrolinyl)]indoline hydrochloride]	13	36	
CC1(C)CCC(N2CCc3ccccc32)=N1 [Example 9, 1-[2-(5,5-Dimethyl-1-pyrrolinyl)]-indoline hydrochloride]		65	motor activity (motor activity in rats): did not produce an increase in motor activity; ED50 [1, 6]: 15 mg/kg; comparison of pentobarbital antagonism: restoring consciousness to a pentobarbital treated cat [2]: substantially equiactive
Cl.c1ccc2c(c1)CCN2C1=NCCCC1 [Example 10, 1-(3,4,5,6-Tetrahydro-2-pyridyl)-indoline hydrochloride]	5.7		
c1ccc2c(c1)CCN2C1=NCCCCC1 [Example 11, 1-[7-(3,4,5,6-Tetrahydro-2H-azepinyl)]-indoline hydrochloride]	17.1		
c1ccc2c(c1)CCN2C1=NCCSC1 [Example 12, 1-[5,6-Dihydro-3-(2H-thiazinyl)]indoline hydrochloride]	11.3		
Cl.c1ccc2c(c1)CCN2C1=NCCN1 [Example 13, 1-(2-Imidazolin-2-yl)indoline hydrochloride]	33.2		
CC(=O)c1ccc2c(c1)CCN2C1=NCCC1 [Example 17, 5-Acetyl-1-[2-(1-pyrrolinyl)]indoline]	7.7	62	motor activity (motor activity in rats): did not produce an increase in motor activity; ED50 [1, 6]: 10 mg/kg; comparison of pentobarbital antagonism: restoring consciousness to a pentobarbital treated cat [2]: substantially equiactive
CC(=O)c1ccc2c(c1)CCN2C1=NCCCCC1 [Example 18, 5-Acetyl-1-[7-(3,4,5,6-tetrahydro-2H-azepinyl)]indoline hydrochloride]	16.2	17	
CN=CN1CCc2cc([N+](=O)[O-])ccc21.Cl [Example 19, 1-[(Methylimino)methyl]-5-nitro-indoline hydrochloride]	10.3		
O=[N+]([O-])c1ccc2c(c1)CCN2C1=NCCCCC1 [Example 21, 1-[7-(3,4,5,6-Tetrahydro-2H-azepinyl)]-5-nitroindoline hydrochloride]		50	

From patent US3935199A, “Iminomethylindolines” (Mead Johnson & Company, priority 1974, dated 1976)
